The values that follow come from patent US12059422B2 (MEI Pharma, Inc., priority 2011, dated 2024).

What all share (assay type): biochemical
One experiment deals with T1, PI3K delta (Homo sapiens, UniProt O00329).
T1 construct: purchased Millipore, Billerica, MA, USA
Put plainly: Luciferase-based luminescence assay (KinaseGlo), PI3K delta enzymatic activity. As to conditions: for IC50: inhibition of enzymatic activity, KinaseGlo, 25 μM ATP, read-out: IC50 p110δ; for α/δ ratio: ratio of enzymatic IC50 against PI3Kα over IC50 against PI3Kδ; for β/δ ratio / γ/δ ratio: ratio of enzymatic IC50 values, Table 1. The procedure, abridged: (§1)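 KinaseGlo luminescence measured ATP remaining after PIP2 (50 μM) phosphorylation with 25 μM ATP in HEPES pH 7.5 buffer with CHAPS and DTT. Final enzyme was 1.65 nM alpha (1 h reaction) or 6.86 nM delta (2 h reaction). IC50 was curve-fitted from 10 concentrations.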
Background: In Kinase-Glo more light means more ATP remaining.

Another experiment deals with T2, PI3K gamma (Homo sapiens, UniProt P48736).
T2 construct: purchased Invitrogen Corp., Carlsbad, CA, USA
T2 sequence (P48736 whole entry, species assumed): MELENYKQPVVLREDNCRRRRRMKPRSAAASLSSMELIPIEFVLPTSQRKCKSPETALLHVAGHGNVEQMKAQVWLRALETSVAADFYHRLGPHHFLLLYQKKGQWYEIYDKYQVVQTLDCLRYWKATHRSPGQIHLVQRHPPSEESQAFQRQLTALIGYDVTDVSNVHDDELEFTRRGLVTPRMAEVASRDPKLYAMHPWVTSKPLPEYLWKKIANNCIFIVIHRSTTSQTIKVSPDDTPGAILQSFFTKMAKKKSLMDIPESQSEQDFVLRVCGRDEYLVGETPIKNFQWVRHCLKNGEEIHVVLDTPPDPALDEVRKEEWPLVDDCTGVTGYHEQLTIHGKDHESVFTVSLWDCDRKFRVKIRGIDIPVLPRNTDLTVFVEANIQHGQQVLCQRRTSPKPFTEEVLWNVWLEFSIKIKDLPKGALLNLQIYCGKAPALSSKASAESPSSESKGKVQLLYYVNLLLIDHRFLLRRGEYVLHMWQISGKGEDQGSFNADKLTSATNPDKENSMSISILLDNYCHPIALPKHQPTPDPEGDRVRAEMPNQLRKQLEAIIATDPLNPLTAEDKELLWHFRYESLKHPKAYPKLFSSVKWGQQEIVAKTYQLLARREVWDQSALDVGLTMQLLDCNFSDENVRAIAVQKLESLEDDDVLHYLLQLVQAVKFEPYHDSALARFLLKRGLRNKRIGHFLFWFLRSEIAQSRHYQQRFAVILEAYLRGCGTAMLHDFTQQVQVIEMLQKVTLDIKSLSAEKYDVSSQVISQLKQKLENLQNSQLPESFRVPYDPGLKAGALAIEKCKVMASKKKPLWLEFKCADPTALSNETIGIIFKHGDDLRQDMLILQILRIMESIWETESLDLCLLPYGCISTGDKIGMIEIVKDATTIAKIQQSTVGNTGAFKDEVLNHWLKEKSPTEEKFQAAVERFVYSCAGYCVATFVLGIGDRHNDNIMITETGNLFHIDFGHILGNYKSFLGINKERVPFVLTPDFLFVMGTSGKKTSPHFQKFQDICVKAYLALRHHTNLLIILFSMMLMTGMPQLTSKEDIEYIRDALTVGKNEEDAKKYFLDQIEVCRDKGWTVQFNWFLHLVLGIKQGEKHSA
Put plainly: Luciferase-based luminescence assay (ADP Glo), PI3K gamma enzymatic activity. As to conditions: inhibition of enzymatic activity, 25 μM ATP, read-out: IC50 p110γ. The procedure, abridged:
(§2)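 Final enzyme 4.8 nM PI3K beta or 7.6 nM PI3K gamma, with 50 μM PIP2 and 25 μM ATP, 1 h in HEPES pH 7.5 buffer with MgCl2, EGTA, NaCl, CHAPS and DTT. ADP formed measured by ADP-Glo luminescence; IC50 from 10-point curve fits.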
(In ADP-Glo the light output rises with the ADP produced.)

The target of a further experiment is T3, PI3K beta (Homo sapiens, UniProt P42338).
T3 construct: purchased Millipore, Billerica, MA, USA
T3 sequence (P42338 whole entry, species assumed): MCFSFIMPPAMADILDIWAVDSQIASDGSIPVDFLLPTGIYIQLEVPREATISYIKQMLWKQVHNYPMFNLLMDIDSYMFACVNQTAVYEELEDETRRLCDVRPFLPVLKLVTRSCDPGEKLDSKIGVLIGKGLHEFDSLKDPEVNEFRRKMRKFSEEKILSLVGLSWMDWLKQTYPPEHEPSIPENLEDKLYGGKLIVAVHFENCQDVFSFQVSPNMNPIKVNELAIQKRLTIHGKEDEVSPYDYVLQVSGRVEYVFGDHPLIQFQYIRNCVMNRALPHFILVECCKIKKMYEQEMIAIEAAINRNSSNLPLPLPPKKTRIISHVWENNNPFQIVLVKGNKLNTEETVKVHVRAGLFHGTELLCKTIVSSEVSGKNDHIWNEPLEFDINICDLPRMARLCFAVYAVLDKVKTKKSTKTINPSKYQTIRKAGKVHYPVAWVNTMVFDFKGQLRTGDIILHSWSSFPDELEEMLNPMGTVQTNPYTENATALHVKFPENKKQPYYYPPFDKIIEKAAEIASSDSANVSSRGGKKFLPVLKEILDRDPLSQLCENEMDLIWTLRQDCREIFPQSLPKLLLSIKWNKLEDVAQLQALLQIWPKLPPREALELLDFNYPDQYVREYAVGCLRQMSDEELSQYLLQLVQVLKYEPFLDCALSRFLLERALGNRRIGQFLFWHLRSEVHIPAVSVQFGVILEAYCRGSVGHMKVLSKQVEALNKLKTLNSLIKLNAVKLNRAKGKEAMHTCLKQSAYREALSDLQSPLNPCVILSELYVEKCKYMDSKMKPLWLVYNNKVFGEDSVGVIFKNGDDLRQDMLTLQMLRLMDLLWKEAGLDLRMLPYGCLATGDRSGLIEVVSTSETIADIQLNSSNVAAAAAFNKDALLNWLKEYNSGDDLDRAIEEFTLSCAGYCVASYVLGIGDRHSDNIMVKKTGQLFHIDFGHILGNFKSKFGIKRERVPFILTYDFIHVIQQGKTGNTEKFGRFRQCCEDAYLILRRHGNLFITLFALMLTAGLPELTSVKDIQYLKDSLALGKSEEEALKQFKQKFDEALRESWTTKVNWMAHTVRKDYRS
T3 sequence (P27986 whole entry partner, species assumed): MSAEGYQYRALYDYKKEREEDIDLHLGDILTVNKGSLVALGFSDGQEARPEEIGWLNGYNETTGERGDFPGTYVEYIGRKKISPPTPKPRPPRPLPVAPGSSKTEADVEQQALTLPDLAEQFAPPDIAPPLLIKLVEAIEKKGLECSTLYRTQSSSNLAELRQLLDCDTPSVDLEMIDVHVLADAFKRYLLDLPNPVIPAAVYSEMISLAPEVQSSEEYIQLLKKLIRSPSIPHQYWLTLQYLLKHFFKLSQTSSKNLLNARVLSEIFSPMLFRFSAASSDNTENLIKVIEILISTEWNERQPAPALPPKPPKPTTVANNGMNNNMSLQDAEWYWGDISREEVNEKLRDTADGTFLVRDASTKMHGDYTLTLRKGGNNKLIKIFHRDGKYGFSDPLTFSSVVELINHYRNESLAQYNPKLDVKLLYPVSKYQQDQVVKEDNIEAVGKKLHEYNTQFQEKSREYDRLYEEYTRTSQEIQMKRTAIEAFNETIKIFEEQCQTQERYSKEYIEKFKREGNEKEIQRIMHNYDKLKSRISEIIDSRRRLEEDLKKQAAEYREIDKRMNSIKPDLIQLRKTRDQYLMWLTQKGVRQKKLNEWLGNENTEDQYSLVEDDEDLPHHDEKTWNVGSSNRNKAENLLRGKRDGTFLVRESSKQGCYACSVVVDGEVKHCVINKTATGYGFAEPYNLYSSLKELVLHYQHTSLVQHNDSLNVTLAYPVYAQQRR
Nature of the experiment: Luciferase-based luminescence assay (ADP Glo), PI3K beta enzymatic activity. As to conditions: for IC50: inhibition of enzymatic activity, ADP Glo, 25 μM ATP, read-out: IC50 p110β; for α/β ratio: ratio of enzymatic IC50 values, Table 1. In short, it runs like this:
as §2

The target in another experiment is T4, PI3K alpha (Homo sapiens, UniProt P42336).
T4 construct: purchased Invitrogen Corp., Carlsbad, CA, USA
T4 sequence (P42336 whole entry, species assumed): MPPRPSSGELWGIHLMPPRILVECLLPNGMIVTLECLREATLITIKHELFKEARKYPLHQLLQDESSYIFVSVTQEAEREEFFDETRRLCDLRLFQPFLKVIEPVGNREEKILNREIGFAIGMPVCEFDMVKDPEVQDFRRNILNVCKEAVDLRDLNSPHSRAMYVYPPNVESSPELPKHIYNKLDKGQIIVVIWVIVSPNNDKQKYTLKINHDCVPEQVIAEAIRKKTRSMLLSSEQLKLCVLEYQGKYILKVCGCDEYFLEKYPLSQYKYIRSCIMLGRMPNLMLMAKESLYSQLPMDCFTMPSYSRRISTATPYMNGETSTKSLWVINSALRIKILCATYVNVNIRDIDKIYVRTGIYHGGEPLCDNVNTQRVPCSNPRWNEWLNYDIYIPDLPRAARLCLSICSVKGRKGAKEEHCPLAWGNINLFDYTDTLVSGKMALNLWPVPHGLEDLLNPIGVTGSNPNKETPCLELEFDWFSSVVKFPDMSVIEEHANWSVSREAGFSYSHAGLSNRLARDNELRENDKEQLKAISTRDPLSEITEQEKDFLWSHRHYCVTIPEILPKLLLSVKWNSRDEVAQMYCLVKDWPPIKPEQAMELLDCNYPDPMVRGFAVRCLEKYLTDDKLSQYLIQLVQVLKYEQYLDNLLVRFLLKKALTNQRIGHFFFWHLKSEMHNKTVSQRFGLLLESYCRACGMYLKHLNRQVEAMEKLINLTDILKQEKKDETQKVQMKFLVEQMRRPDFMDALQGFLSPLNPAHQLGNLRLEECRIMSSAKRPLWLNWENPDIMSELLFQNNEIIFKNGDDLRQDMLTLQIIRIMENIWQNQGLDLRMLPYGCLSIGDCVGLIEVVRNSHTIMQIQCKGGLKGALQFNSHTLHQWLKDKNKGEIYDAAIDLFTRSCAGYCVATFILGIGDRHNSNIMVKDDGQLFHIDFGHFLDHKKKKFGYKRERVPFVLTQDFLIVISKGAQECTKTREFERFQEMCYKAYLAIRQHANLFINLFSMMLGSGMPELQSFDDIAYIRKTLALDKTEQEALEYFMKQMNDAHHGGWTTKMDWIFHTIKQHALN
T4 sequence (P27986 whole entry partner, species assumed): as the sequence (P27986 whole entry partner, species assumed) above
Put plainly: Luciferase-based luminescence assay (KinaseGlo), PI3K alpha enzymatic activity. The note with it: inhibition of enzymatic activity, 25 μM ATP, read-out: IC50 p110α. In short, it runs like this:
as §1

T1 sequence (O00329 whole entry, species assumed): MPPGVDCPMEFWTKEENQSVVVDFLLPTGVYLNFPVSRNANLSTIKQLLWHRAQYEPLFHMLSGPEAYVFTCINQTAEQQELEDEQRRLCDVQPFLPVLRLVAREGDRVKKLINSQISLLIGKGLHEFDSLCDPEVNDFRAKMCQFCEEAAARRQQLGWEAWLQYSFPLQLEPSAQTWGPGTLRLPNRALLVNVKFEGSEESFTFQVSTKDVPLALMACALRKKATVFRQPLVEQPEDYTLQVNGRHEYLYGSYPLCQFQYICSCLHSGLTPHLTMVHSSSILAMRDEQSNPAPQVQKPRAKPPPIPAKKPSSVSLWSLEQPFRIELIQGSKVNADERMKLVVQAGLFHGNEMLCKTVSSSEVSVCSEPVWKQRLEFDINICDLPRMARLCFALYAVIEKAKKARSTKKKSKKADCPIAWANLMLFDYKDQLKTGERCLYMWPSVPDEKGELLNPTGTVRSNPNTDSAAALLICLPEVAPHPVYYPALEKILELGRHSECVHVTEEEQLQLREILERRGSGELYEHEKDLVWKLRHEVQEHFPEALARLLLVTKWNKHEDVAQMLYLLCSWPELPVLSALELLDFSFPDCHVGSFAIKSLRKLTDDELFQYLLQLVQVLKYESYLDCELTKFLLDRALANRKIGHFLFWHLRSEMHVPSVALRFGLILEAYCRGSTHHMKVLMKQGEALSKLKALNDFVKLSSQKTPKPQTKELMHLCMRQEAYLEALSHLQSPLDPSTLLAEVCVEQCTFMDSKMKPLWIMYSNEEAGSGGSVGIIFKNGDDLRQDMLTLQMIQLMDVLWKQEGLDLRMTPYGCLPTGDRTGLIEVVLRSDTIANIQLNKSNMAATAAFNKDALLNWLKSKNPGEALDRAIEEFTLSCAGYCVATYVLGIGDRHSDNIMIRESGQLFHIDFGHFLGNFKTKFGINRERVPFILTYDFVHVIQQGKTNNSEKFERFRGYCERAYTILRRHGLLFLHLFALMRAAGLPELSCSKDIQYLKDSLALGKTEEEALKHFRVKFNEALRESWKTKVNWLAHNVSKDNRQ
T1 sequence (P27986 whole entry partner, species assumed): as the sequence (P27986 whole entry partner, species assumed) above

For `COc1cc(-c2ccccc2CC(C)(C)Nc2nc(N3CCOCC3)nc(-n3c(C(F)F)nc4ccccc43)n2)ccn1` [Compound A41, 4-(2-(difluoromethyl)-1H-benzo[d]imidazol-1-yl)-N-(1-(2-(2-methoxypyridin-4-yl)phenyl)-2-methylpropan-2-yl)-6-morpholino-1,3,5-triazin-2-amine], at PI3K delta, the IC50 (usually the concentration at which inhibition is half-maximal) is no more than 100 nM, the α/δ ratio result is listed as “A’”, the β/δ ratio entry is on record as “A’” and the γ/δ ratio entry was “A’”. Besides, on PI3K gamma, the IC50 is greater than 500 nM. Besides, on PI3K beta, the IC50 is greater than 500 nM and the α/β ratio result is on record as “D’”. In addition, the concentration for half-maximal inhibition (IC50) on PI3K alpha is greater than 500 nM.

As to `CC(C)(Cc1ccccc1-c1cccnc1F)Nc1nc(N2CCOCC2)nc(-n2c(C(F)F)nc3ccccc32)n1` [Compound A62], on PI3K delta, the IC50 was no more than 100 nM, the α/δ ratio entry is listed as “A’”, the β/δ ratio result is “A’” and the γ/δ ratio entry is “A’”. For the same molecule, the IC50 at PI3K gamma is greater than 500 nM. Besides, at PI3K beta, the IC50 is greater than 500 nM and the α/β ratio result is reported as “D’”. Further, the IC50 on PI3K alpha is greater than 500 nM.

On to `CC(C)(Cc1ccccc1F)Nc1nc(N2CCOCC2)nc(-n2c(C(F)F)nc3ccccc32)n1` [Compound A15, 4-(2-(difluoromethyl)-1H-benzo[d]imidazol-1-yl)-N-(1-(2-fluorophenyl)-2-methylpropan-2-yl)-6-morpholino-1,3,5-triazin-2-amine], for which, at PI3K delta, the IC50 was no more than 100 nM, the α/δ ratio result was “A’”, the β/δ ratio result is recorded as “C’” and the γ/δ ratio result was “A’”. The IC50 on PI3K gamma is greater than 500 nM. Also, on PI3K beta, the IC50 was in the range of 100 to 200 nM and the α/β ratio result is listed as “D’”. For the same molecule, the IC50 at PI3K alpha was greater than 500 nM.

Regarding `COc1cccc(CC(C)(C)Nc2nc(N3CCOCC3)nc(-n3c(C(F)F)nc4ccccc43)n2)c1` [Compound A21, 4-(2-(difluoromethyl)-1H-benzo[d]imidazol-1-yl)-N-(1-(3-methoxyphenyl)-2-methylpropan-2-yl)-6-morpholino-1,3,5-triazin-2-amine], at PI3K delta, the IC50 was no more than 100 nM, the α/δ ratio entry is on record as “A’”, the β/δ ratio entry is on record as “B’” and the γ/δ ratio entry is given as “A’”. For the same molecule, on PI3K gamma, the IC50 is greater than 500 nM. Further, at PI3K beta, the IC50 lay within 100 to 200 nM and the α/β ratio result is “C’”. Further, the half-inhibitory concentration (IC50) on PI3K alpha is greater than 500 nM.

With `CN1CCC(c2ccccc2CC(C)(C)Nc2nc(N3CCOCC3)nc(-n3c(C(F)F)nc4ccccc43)n2)CC1` [Compound A35, 4-(2-(difluoromethyl)-1H-benzo[d]imidazol-1-yl)-N-(2-methyl-1-(2-(1-methylpiperidin-4-yl)phenyl)propan-2-yl)-6-morpholino-1,3,5-triazin-2-amine], on PI3K delta, the IC50 was no more than 100 nM, the α/δ ratio entry is given as “A’”, the β/δ ratio entry is “A’” and the γ/δ ratio result is given as “A’”. Moreover, the half-inhibitory concentration (IC50) on PI3K gamma was greater than 500 nM. Besides, on PI3K beta, the IC50 was 200 to 500 nM and the α/β ratio entry is listed as “B’”. For the same molecule, on PI3K alpha, the IC50 is greater than 500 nM.

For the molecule `CC(C)(Cc1ccc(F)cc1F)Nc1nc(N2CCOCC2)nc(-n2c(C(F)F)nc3ccccc32)n1` [Compound A51, 4-(2-(difluoromethyl)-1H-benzo[d]imidazol-1-yl)-N-(1-(2,4-difluorophenyl)-2-methylpropan-2-yl)-6-morpholino-1,3,5-triazin-2-amine], on PI3K delta, the concentration for half-maximal inhibition (IC50) is no more than 100 nM, the α/δ ratio result is on record as “A’”, the β/δ ratio result is listed as “B’” and the γ/δ ratio result is listed as “C’”. For the same molecule, the IC50 on PI3K gamma was 200 to 500 nM. Moreover, at PI3K beta, the IC50 was greater than 500 nM and the α/β ratio result is listed as “D’”. Moreover, at PI3K alpha, the IC50 is greater than 500 nM.

For `CC(C)(Cc1ccc(F)cc1)Nc1nc(N2CCOCC2)nc(-n2c(C(F)F)nc3ccccc32)n1` [Compound A22, 4-(2-(difluoromethyl)-1H-benzo[d]imidazol-1-yl)-N-(1-(4-fluorophenyl)-2-methylpropan-2-yl)-6-morpholino-1,3,5-triazin-2-amine], at PI3K delta, the IC50 was no more than 100 nM, the α/δ ratio entry is recorded as “A’”, the β/δ ratio result is on record as “C’” and the γ/δ ratio result is reported as “A’”. The IC50 on PI3K gamma lay within 200 to 500 nM. In addition, on PI3K beta, the IC50 was in the range of 100 to 200 nM and the α/β ratio entry is listed as “C’”. Also, the IC50 at PI3K alpha is greater than 500 nM.

As for `Cn1cc(-c2ccccc2CC(C)(C)Nc2nc(N3CCOCC3)nc(-n3c(C(F)F)nc4ccccc43)n2)cn1` [Compound A45, 4-(2-(difluoromethyl)-1H-benzo[d]imidazol-1-yl)-N-(2-methyl-1-(2-(1-methyl-1H-pyrazol-4-yl)phenyl)propan-2-yl)-6-morpholino-1,3,5-triazin-2-amine], on PI3K delta, the IC50 was no more than 100 nM, the α/δ ratio result was “A’”, the β/δ ratio result was “D’” and the γ/δ ratio entry is on record as “A’”. Also, the IC50 on PI3K gamma lay within 200 to 500 nM. On PI3K beta, the IC50 was no more than 100 nM and the α/β ratio result is recorded as “A’”. Moreover, the IC50 on PI3K alpha fell in the range of 100 to 200 nM.

Turning to `COc1cccc(-c2ccccc2CC(C)(C)Nc2nc(N3CCOCC3)nc(-n3c(C(F)F)nc4ccccc43)n2)c1` [Compound A66, 4-(2-(difluoromethyl)-1H-benzo[d]imidazol-1-yl)-N-(1-(3′-methoxybiphenyl-2-yl)-2-methylpropan-2-yl)-6-morpholino-1,3,5-triazin-2-amine], at PI3K delta, the IC50 was no more than 100 nM, the α/δ ratio entry is “A’”, the β/δ ratio entry is given as “A’” and the γ/δ ratio result is “A’”. For the same molecule, on PI3K gamma, the IC50 is greater than 500 nM. Also, on PI3K beta, the IC50 is greater than 500 nM and the α/β ratio result is listed as “D’”. The IC50 at PI3K alpha was greater than 500 nM.

Regarding `Cc1ccccc1CC(C)(C)Nc1nc(N2CCOCC2)nc(-n2c(C(F)F)nc3ccccc32)n1` [Compound A18, 4-(2-(difluoromethyl)-1H-benzo[d]imidazol-1-yl)-N-(2-methyl-1-(o-tolyl)propan-2-yl)-6-morpholino-1,3,5-triazin-2-amine], on PI3K delta, the 50% inhibitory concentration (IC50) was no more than 100 nM, the α/δ ratio result is “A’”, the β/δ ratio entry is recorded as “D’” and the γ/δ ratio result is given as “B’”. The IC50 on PI3K gamma was in the range of 200 to 500 nM. Besides, at PI3K beta, the half-inhibitory concentration (IC50) is no more than 100 nM and the α/β ratio entry is listed as “A’”. Moreover, at PI3K alpha, the IC50 was greater than 500 nM.

`CC(C)(Cc1ccccc1-c1cccnc1)Nc1nc(N2CCOCC2)nc(-n2c(C(F)F)nc3ccccc32)n1` [Compound A40, 4-(2-(difluoromethyl)-1H-benzo[d]imidazol-1-yl)-N-(2-methyl-1-(2-(pyridin-3-yl)phenyl)propan-2-yl)-6-morpholino-1,3,5-triazin-2-amine]: on PI3K delta, the IC50 was no more than 100 nM, the α/δ ratio result is reported as “A’”, the β/δ ratio entry is “D’” and the γ/δ ratio entry is on record as “A’”. Further, on PI3K gamma, the IC50 lay within 200 to 500 nM. Further, on PI3K beta, the IC50 is no more than 100 nM and the α/β ratio entry is listed as “B’”. The IC50 at PI3K alpha was 200 to 500 nM.

On to `CC(C)(Cc1ccccc1C1CCNC1)Nc1nc(N2CCOCC2)nc(-n2c(C(F)F)nc3ccccc32)n1` (centres unmarked) [Compound A74, 4-(2-(difluoromethyl)-1H-benzo[d]imidazol-1-yl)-N-(2-methyl-1-(2-(pyrrolidin-3-yl)phenyl)propan-2-yl)-6-morpholino-1,3,5-triazin-2-amine], for which, at PI3K delta, the IC50 was no more than 100 nM, the α/δ ratio entry is given as “A’”, the β/δ ratio entry is on record as “A’” and the γ/δ ratio result was “A’”. Moreover, the IC50 at PI3K gamma was greater than 500 nM. Moreover, on PI3K beta, the half-maximal inhibitory concentration (IC50) is greater than 500 nM and the α/β ratio entry is “D’”. The half-inhibitory concentration (IC50) at PI3K alpha is greater than 500 nM.

Consider `CC(C)(Cc1ccccc1-c1ccccc1F)Nc1nc(N2CCOCC2)nc(-n2c(C(F)F)nc3ccccc32)n1` [Compound A59, 4-(2-(difluoromethyl)-1H-benzo[d]imidazol-1-yl)-N-(1-(2′-fluorobiphenyl-2-yl)-2-methylpropan-2-yl)-6-morpholino-1,3,5-triazin-2-amine], for which, at PI3K delta, the IC50 is no more than 100 nM, the α/δ ratio result is “A’”, the β/δ ratio entry is recorded as “A’” and the γ/δ ratio entry was “A’”. Besides, the IC50 on PI3K gamma was greater than 500 nM. In addition, at PI3K beta, the IC50 lay within 200 to 500 nM and the α/β ratio entry was “C’”. Besides, the IC50 on PI3K alpha is greater than 500 nM.
